Results published in US5889007A, “10, 11-methanodibenzosuberane derivatives” (priority 1995, dated 1999).
Like-named read-outs stand apart in the source and are kept apart here. Blank lines part the entries; values can stand above or below the molecule they belong to.

Legend:
drug-resistant malaria = details: in vitro; cited from earlier work
[1] = cited from earlier work
multidrug resistance [2] = details: anticancer drug potentiator; cited from earlier work
[3] = cited from earlier work; remark: listed apart in the source
[4] = Determination of Stability at Acid pH (HPLC, 0.01N HCl); assay type: physicochemical; details: 0.01N HCl (pH 2), 37° C.
Method: Determination of Stability at Acid pH
Test compounds (15 μg) were dissolved in 3 ml of 0.01N HCl (pH 2) and incubated at 37° C. […] The test compounds and their degradation products were monitored by UV absorption at 240 nm. Disappearance of the parent compound was expressed as a percent peak height relative to time zero, from which t1/2 values were determined graphically, as follows.

multidrug resistance [5] = details: compared with MS-073; cited from earlier work

SMILES: COc1ccc(CCN(C)CCCC(C#N)(c2ccc(OC)c(OC)c2)C(C)C)cc1OC (stereo not shown) [verapamil]
effect in treating drug-resistant malaria (drug-resistant malaria): effective in vitro

half-life [4]: 0.25 h
SMILES: OC(COc1cccc2ncccc12)CN1CCN(C2c3ccccc3CCc3ccccc32)CC1 (stereo not shown) [MS-073]
oral bioavailability ([1]; oral): poor oral bioavailability | activity in in vitro testing (multidrug resistance [2]): highly active | stability in solution [3]: instability problems in solution

SMILES: O=C(C(c1ccccc1)c1ccccc1)N1CCN(CC(O)COc2cccc3ncccc23)CC1 (stereo not shown) [MS-209]
oral bioavailability ([1]; in vivo, po): better stability and oral bioavailability | effective doses (multidrug resistance [5]): higher effective doses

SMILES: OC(COc1cccc2ncccc12)CN1CCN(C2c3ccccc3C3C(Cl)C3c3ccccc32)CC1 [(2R,S)-anti-5-{3-[4-(10,11-chloromethanodibenzosuber-5-yl)piperazine-1-yl]-2-hydroxypropoxy}quinoline]
t1/2 [4]: > 72 h

half-life [4]: 2.5 h
SMILES: OC(COc1cccc2ncccc12)CN1CCN([C@@H]2c3ccccc3[C@H]3C[C@H]3c3ccccc32)CC1 (relative stereo) [(2R,S)-anti-5-{3-[4-(10,11-methanodibenzosuber-5-yl)piperazin-1-yl]-2-hydroxypropoxy}quinoline]

half-life [4]: > 72 h
SMILES: OC(COc1cccc2ncccc12)CN1CCN(C2c3ccccc3C3C(c4ccccc42)C3(F)F)CC1 (racemic) [(2R,S)-5-{3-[4-(10,11-difluoromethanodibenzosuber-5-yl)piperazine-1-yl]-2-hydroxypropoxy}quinoline]
